This note sets out measurements from PMC8219027, “A small-molecule inhibitor of the BRCA2-RAD51 interaction modulates RAD51 assembly and potentiates DNA damage-induced cell death” (Cell Chemical Biology, 2021).

For one series, the system named is γH2AX foci in A549 cells. Description: γH2AX foci, Cellomics ArrayScan high-content microscopy. To be noted: 50 μM, 24 h after exposure to IR. It is filed as cell-based, human. The text has this: We tested this prediction by monitoring RAD51 foci formation after the exposure of A549 non-small cell lung carcinoma (NSCLC) cells to ionizing radiation (IR), using a robust cell-based assay based on high-content microscopy with the Cellomics ArrayScan V^TI, to objectively enumerate RAD51 foci ([Jeyasekharan et al., 2013]). IR-induced DNA breakage was monitored in the same experiment by enumerating foci containing γH2AX, a phosphorylated form of histone H2AX that is formed at DNA breaks ([Rogakou et al., 1998]).
For detection of γH2AX foci in A549 cells, 10,000 cells/well (1x10^5 cells/ml) were seeded in 100 μl and left to grow overnight before treatment with compound. Cells were subsequently exposed to compounds and either 3 Gy ionising radiation or mock treated (left on the bench at room temperature). Staining protocol was identical as for RAD51 foci but anti-phospho γH2AX primary mouse monoclonal antibody was used (Millipore, cat#05-636) at 1:2000 dilution. Image analysis was done using Cellomics software.

Series [1] has as its system HCT116 colon carcinoma cells. The series is described as follows: Cell-cycle profiling by flow cytometry (propidium iodide). It is filed as cell-based, human. The conditions noted are these: HCT116, 20 μM CAM833 and 3 Gy IR. From the text:
Genetic inactivation of RAD51 enhances cellular sensitivity to ionizing radiation, accompanied by cell-cycle arrest at the G2 checkpoint for DNA damage ([Sonoda et al., 1998]; [Su et al., 2008]). We hypothesized that similar effects would be triggered by the exposure of cells to CAM833. […] Over time, there is a drop in the percentage of cells with 4N DNA in both treated and control groups. However, whereas in the control the percentage of cells in the apoptotic subG1 fraction remains below 5% throughout, in the compound-treated cells this rises progressively to peak at 15% at 48 hours (Figure 5D).
Propidium iodide staining solution (PI solution) was used at the following final concentrations: 200 ug/ml RNAase A (Sigma Aldrich, cat# 10109169001), 0.1% Triton-X 100 (v/v) and 20 ug/ml of propidium iodide solution diluted in 1x PBS. HCT116 cells were grown in 6-well plates in a total volume of 2 ml and treated with either test compound or DMSO control for the designated time. After treatment, medium was collected from the cells which were then washed in 1x PBS then removed from the plastic by the addition of in 500 μl Trypsin/EDTA until cells were monodispersed. The trypsin was neutralised by the removed media and the cell suspension was spun at 1000 rpm for 5 minutes. […] Cells were then counted and analysed using a Becton Dickinson LSR II cytometer and FCS Express software.
A general note: Flow cytometry measures light scatter and fluorescence of single cells or particles in a stream.

Another series addresses T1, CYP450 3A4 (Homo sapiens, UniProt P08684).
T1 construct: Cyprotex (contract data)
Description: CYP450 inhibition. It is filed as in vitro ADME.

For series [2], the system named is RAD51 clusters in EUFA423 cells. The series is described as follows: RAD51 molecular clustering by SMLM (d-STORM). The conditions noted are these: 25 μM, 3 h after 3 Gy IR. It is filed as cell-based, human. On the procedure: (§1) […]; [Howlett et al., 2002]). We developed, as isogenic controls, EUFA423 cells complemented by the expression of full-length BRCA2 (EUFA423 + BRCA2) ([Hattori et al., 2011]). […]. […] […].
(§2) Single Molecule Localization Microscopy (SMLM) was achieved by direct Stochastic Optical Reconstruction Microscopy (d-STORM) as described ([Haas et al., 2018]). Briefly, samples were prepared for one colour 2D d-STORM utilizing a buffer containing 100 mM MEA-HCL (Sigma, M6500), 10% glucose (Sigma), 0.5 mg/ml glucose oxidase (Sigma, G2133) and 40 μg/ml catalase (Sigma, C100) in water at pH 7.5. Samples were imaged by direct STORM at room temperature in sealed 8-well ibidi μ-slides utilizing an inverted N-STROM microscope (Nikon Ti, Japan) equipped with an Apochromat 100x/1.49 NA oil immersion objective. Samples were let to equilibrate for at least 30 minutes before imaging to minimize thermal drift. Images were then acquired with highly inclined illumination and focus was maintained by hardware autofocusing (Nikon Perfect Focus System). AlexaFluor647 was first pumped in its dark state using the 640 nm laser line at maximum power (~150 mW) and then imaged continuously with a power density of ~3 kW/cm^2. Data were acquired in ‘streaming mode’ with a field-of-view (FOV) of 256x256 pixels (160 nm pixel size), at 65 frames per second for 25,000 frames with an EMCCD camera (iXon Ultra DU897, Andor). The sparsity of single molecules per frame was controlled using ~0.6 mW of the 405 nm laser. Images of AlexaFluor647 were acquired with a Quad Band Set for TIRF applications (Chroma, TRF89901, ET – 405/488/561/640 nm) and the ET645/75 m emission filter (Chroma).
(§3) Single molecule data was analysed using the Grafeo program available at https://github.com/inatamara/Grafeo-dSTORM-analysis-, as described in ([Haas et al., 2018]). Briefly, all localizations with fewer than 1,000 detected photons or localization precision lower than 20 nm were discarded. Next, the data was filtered using 2D Voronoi diagrams, setting the minimum density (an inverse of Voronoi polygon VP size) to 5∗10^-5 nm^-2. […]

The subject of series [3] is RAD51 clusters in EUFA423 + BRCA2 cells. The series is described as follows: RAD51 molecular clustering by SMLM (d-STORM). It is filed as cell-based, human. To be noted: 25 μM. Here is the method:
as §1, §2, §3

For another series, the system named is PANC1. Description: cells. The conditions noted are these: Homo sapiens, PANC-1, read-out: Absolute EC50, growth inhibition.
A short description of the next series: Mouse oral screen. The conditions noted are these: male, CD-1, mouse, in vivo, 50 mg/kg.

T1 sequence (P08684 whole entry): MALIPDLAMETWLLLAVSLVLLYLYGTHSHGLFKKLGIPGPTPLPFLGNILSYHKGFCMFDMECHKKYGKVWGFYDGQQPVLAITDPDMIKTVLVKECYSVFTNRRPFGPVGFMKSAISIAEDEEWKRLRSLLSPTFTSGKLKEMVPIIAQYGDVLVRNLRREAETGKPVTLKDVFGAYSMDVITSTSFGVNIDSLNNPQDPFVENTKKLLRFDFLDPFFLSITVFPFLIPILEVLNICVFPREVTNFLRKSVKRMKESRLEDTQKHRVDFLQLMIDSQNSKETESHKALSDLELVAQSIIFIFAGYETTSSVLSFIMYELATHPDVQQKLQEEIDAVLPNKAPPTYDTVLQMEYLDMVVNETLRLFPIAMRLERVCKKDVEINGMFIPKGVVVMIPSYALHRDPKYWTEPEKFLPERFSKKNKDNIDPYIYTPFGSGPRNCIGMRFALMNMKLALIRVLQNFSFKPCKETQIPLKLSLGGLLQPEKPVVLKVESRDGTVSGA

In the case of `COc1ccc([C@H](C)NC(=O)[C@@H]2C[C@@H](O)CN2C(=O)CNC(=O)c2ccc3cc(F)ccc3n2)c(Cl)c1` [CAM833, N-(2-((2S,4R)-2-(((S)-1-(2-chloro-4-methoxyphenyl)ethyl)carbamoyl)-4-hydroxypyrrolidin-1-yl)-2-oxoethyl)-6-fluoroquinoline-2-carboxamide], the “increase of γH2AX foci formation compared with control-treated cells” value in the series on γH2AX foci in A549 cells is on record as “approximately 4 fold”. In addition, the “percentage of cells with 4N DNA (in words)” value in series [1] (4 hours after irradiation) is “causes an increase”. Also, the “percentage of cells in the apoptotic subG1 fraction, peak” value in series [1] (at 48 hours) was determined as 15%. The IC50 against CYP450 3A4 (3A4 midazolam site) and on CYP450 3A4 (3A4 testosterone site) was above 25 µM each time. The “RAD51 accumulation in damage-induced foci (in words)” value in series [2] and in series [3] (3 h after 3 Gy IR) was “significantly reduces” each time. Moreover, the “formation of elongated RAD51 filaments (in words)” value in series [3] (3 Gy IR) was “prevents the formation of elongated filaments”. In addition, the EC50 in the series on PANC1 worked out at 96 µM. This compound also had a Cmax in “Mouse oral screen” of 8320 ng/mL. In the series “Mouse oral screen”, the bioavailability stood at 44%.

The IC50 is the concentration at which inhibition is half-maximal. Low values mean higher potency, high ones lower potency. Usually EC50 stands for the concentration that produces a half-maximal response. One may read the Cmax as the peak of the concentration-time curve. As usually defined, the bioavailability is dose-corrected exposure relative to a reference, in per cent. High values mean much systemic uptake, low ones little systemic uptake.
